Measured values reported in patent publication US10000793B2, “Method for enumeration of mammalian cell micronuclei, while distinguishing chromatin of dead and dying cells” (priority 2004, dated 2018).
Structures can show the parent of a compound that is named as a salt. Where two headings read alike, the source gives them in different places.

Columns and labels:
[1] = tested on: CHO-K1 cells; test: In vitro micronucleus test, flow cytometric and microscopy scoring, CHO-K1 cells; format: cell-based, Chinese hamster; conditions: 4 hr treatment, 20 hr recovery, 0-40 μg/ml, FIG. 8
Method: On the day before treatment, CHO-K1 cells were harvested and counted, and their density was adjusted to 6×10^4/ml in culture medium. This cell suspension was added to 75 cm^2 flasks (20 ml per flask; one flask per exposure group). After incubating for approximately 16 to 24 hrs at 37° C., spent culture medium was replaced with 20 ml fresh, pre-warmed medium per flask. Methyl methanesulfonate was added from 1000× strength stock solutions for final concentrations of 0, 10, 20, 30, and 40 μg/ml, at which time cultures where reincubated at 37° C. After a 4 hr treatment period, culture medium was aspirated, cells were rinsed one time with an isotonic salt solution, and then 20 ml fresh, pre-warmed culture medium was added to each flask. These cultures were reincubated for a 20 hr recovery period. At the time of cell harvest, 2.5 ml typsin/EDTA solution per flask was used to detach cells from culture vessels. Cells were collected via centrifugation and responded in culture medium.
(§1) Events were triggered on FL1 fluorescence.
5 μl aliquots were applied to glass slides.

[2] = tested on: L5178Y cells
Method: (§2) Samples, stored for up to two days at 4° C., were gently tapped to resuspend the particles. Data acquisition and analysis was then accomplished with a single-laser flow cytometer, 488 nm excitation (FACSCalibur, BD Biosciences, San Jose, Calif.). Instrumentation settings and data acquisition/analysis were controlled with CellQuest software v3.3 (BD Biosciences). SYTOX-associated fluorescence emission was collected in the FL1 channel (530/30 band-pass filter), and EMA-associated fluorescence was collected in the FL3 channel (670 long-pass filter). Events were triggered on FL1 fluorescence. The FCM gating strategy that was developed for this micronuclei scoring application required events to meet each of six separate criteria before they were scored as nuclei or micronuclei (see FIGS. 2A-H). The incidence of flow cytometric-scored micronuclei is expressed as frequency percent (no. micronuclei/no. nuclei×100), and are based on the acquisition of 20,000 EMA-negative nuclei per specimen.
That is, by displaying the SYTOX-associated signal as fluorescence area (FL1-A), qualitative assessments of cell cycle-related effects were possible. […] Note that while these observations are presented in a qualitative manner, software packages are available which are capable of deconvoluting such histograms to provide quantitative assessment of cell cycle effects.

[3] = tested on: L5178Y cells; test: In vitro micronucleus test, flow cytometric (EMA/SYTOX) and microscopy scoring, L5178Y cells
Method: L5178Y cells were treated over a range of chemical concentrations in culture medium, one 25 cm^2 flask per concentration. During treatment, cells were at 3×10^5/ml in a volume of 20 ml per flask (this high number of cells facilitated multiple readings per flask). After a 4 hr treatment period, cells were washed one time via centrifugation at 600×g, resuspended in a volume of 40 ml culture medium, and transferred to 75 cm^2 flasks. Cells were re-incubated at 37° C. for 20 additional hrs—the equivalent of two normal doubling times.
In this case, cultures (1.5×10^5 cells/ml, 40 ml/flask) were continuously exposed to chemical over a range of concentrations. Cells were harvested after 24 hrs of incubation at 37° C. without recovery.
At the time of cell harvest, FDA+ and PI+ cell counts were performed as described supra. […] Cells were collected via centrifugation at approximately 600×g for 5 minutes. Supernatants were aspirated, and cells were resuspended with gentle tapping. […] These tubes were placed in racks and submerged to a depth of approximately 2 cm in crushed ice. A visible light source (60 watt light bulb) was positioned approximately 30 cm above the tubes for 20 minutes.
After the photoactivation period, 800 μl cold buffer solution was added to each sample. From this point forward, exposure of samples to light was minimized with dim lighting and foil. The contents of the tubes were then transferred to 15 ml polypropylene centrifuge tubes, and 8 ml of cold buffer solution was added to each sample. Cells were collected via centrifugation, and supernatants aspirated such that approximately 50 μl of supernatant remained per tube. Cells were gently resuspended with tapping, and were maintained at room temperature until the follow procedures were initiated (within 30 minutes). 1 ml “Lysis Solution 1” was added slowly to each tube (approximately 15 seconds per sample). […] Upon addition of Lysis Solution 1, the tube was immediately vortexed (medium setting) for 5 seconds. These samples were kept at room temperature for 1 hr. At this time, 1 ml “Lysis Solution 2” was injected forcefully into each tube, which were immediately vortexed (medium) for 5 seconds. […] These specimens were maintained at room temperature for 30 minutes. Subsequently, samples were stored at 4° C. until flow cytometric analysis (up to two days following cell harvest/staining/lysis procedures).
as §2
Approximately 3.5×10^6 cells per culture were centrifuged and resuspended with 20 μl heat-inactivated fetal bovine serum. 5 μl aliquots were applied to glass slides. Air dried slides were submerged in absolute methanol for 10 minutes and then stored in the dark until staining and analysis. […] An Olympus BH-2 fluorescence microscope was used for micronuclei measurements at 400× magnification. For each treated culture, 2000 mononucleated, non-apoptotic, non-necrotic cells were analyzed for the presence of micronuclei (1000 cells×2 slides per culture).

[4] = tested on: L5178Y cells; test: Cytotoxicity, % EMA-positive events by flow cytometry; format: cell-based
From the text: as §1
In addition to supplying genotoxicity and cell cycle information, these flow cytometric analyses were capable of concurrently providing a measure of cytotoxicity. Specifically, the frequency of EMA-positive events is a statistic that relates to membrane integrity. […] This statistic could be useful for helping to identify chemical concentrations that are too cytotoxic for reliable genotoxicity assessment.

[5] = tested on: L5178Y cells; remark: listed apart in the source
Method: Once L5178Y or CHO-K1 cells were collected as described above, cytotoxicity measurements were performed as follows: 0.5 ml of each culture was added to flow cytometry tubes containing fluorescein diacetate (“FDA”) (0.075 μg/ml), propidium iodide (“PI”) (25 μg/ml), and 2.5 μm Carmine 580/620 microspheres (Molecular Probes, Eugene, Oreg.). The concentration of these “counting beads” was determined with a hemacytometer. […] Relative survival was then calculated as follows: The number of FDA+ cells in each chemical treatment culture was expressed as a percentage of the number of FDA+ cells in the concurrent solvent control culture.

SMILES | Cell Cycle Effect [2] | MN Induction (≥3-fold) [3] | other results
COS(C)(=O)=O [Methyl methanesulfonate] | +++ | Yes | micronucleus frequency [1]: dose-related increase
OC[C@H]1O[C@@](CO)(O[C@H]2O[C@H](CO)[C@@H](O)[C@H](O)[C@H]2O)[C@@H](O)[C@@H]1O [Sucrose] | − |  | micronucleus-induction ([3]; L5178Y cells, continuous-treatment exposure (24 hr)): not evident; % EMA-positive events [4]: non-cytotoxic
O=P1(N(CCCl)CCCl)NCCCO1 (centres unmarked) [Cyclophosphamide monohydrate] |  |  | MN Induction (≥3-fold) ([3]; L5178Y cells, treatment/recovery 4/20 hrs, benzo[a]pyrene and cyclophosphamide with 10% v/v metabolic activation system): Yes

Further lines, with some results ahead:

Cell Cycle Effect [2] | SMILES | MN Induction (≥3-fold) [3] | other results
+++ | CC[C@]1(O)C[C@@H]2CN(CCc3c([nH]c4ccccc34)[C@@](C(=O)OC)(c3cc4c(cc3OC)N(C)[C@H]3[C@@](O)(C(=O)OC)[C@H](OC(C)=O)[C@]5(CC)C=CCN6CC[C@]43[C@@H]65)C2)C1 [Vinblastine sulfate] | Yes | micronucleus response, continuous 24 hr exposure versus short-term treatment [3]: greater
+++ | NC(=O)NO [Hydroxyurea] | Yes | 
− | C[C@@H]1C[C@H]2[C@@H]3CCC4=CC(=O)C=C[C@]4(C)[C@@]3(F)[C@@H](O)C[C@]2(C)[C@@]1(O)C(=O)CO [Dexamethasone] | No | cell survival [5]: significantly affected cell survival; changes in % micronuclei [3]: Nil to slight changes; increase in % micronuclei relative to solvent control ([3]; mouse): less than 3 fold
